Experiments:
PfNF54 ABS parasites = assay: SYBR Green I-based proliferative assay, PfNF54 ABS parasites; format: cell-based, Plasmodium falciparum; settings: ABS, SYBR Green I, 96 h; mean ± S.E., N = 3 (no S.E.: N = 1)
Experimental: The parasites were incubated under drug […]
incubation, parasite survival was determined by adding equal volumes of parasite suspension (100 µL) and SYBR Green I lysis buffer (0.2% µL/mL of 10 000x SYBR Green I, 20 mM Tris-HCl, pH 7.5, 5 mM EDTA, 0.008% saponin (w/v) and 0.08% Triton x-100). This was incubated for 1 hour at room temperature in the dark. […]

[1] = test system: early-stage gametocytes (NF54-PfS16-GFP-Luc); assay: Luciferase reporter assay, early-stage gametocytes; format: cell-based, Plasmodium falciparum; settings: single biological repeat
Experimental: (§1) All the complexes were tested for their early- and late-stage gametocyte activity in a dual-point assay (1 μM and 5 μM). […]
(§2) 1.5.In vitro activity against gametocyte stages
(§3) PfNF54 gametocytes were prepared and isolated according to the method reported by Reader […]
(§4) The in vitro gametocyte activity of the synthesized complexes was determined using a luciferase reporter line-based assay.
(§5) NF54-PfS16-GFP-Luc parasites were used for the stage-specific assessment of gametocytocidal activity. Early-stage gametocyte (stage I-III) experiments were performed on day 5 (representing >90% of early-stage and late-stage gametocyte (stages IV/V) experiments were performed on day 10. In each experiment, assays were set up with the use of 2-3% […]
(§6) Luciferase activity was determined in 30 µL parasite lysates by adding luciferin substrate (30 µL) (Promega Luciferase Assay System) at room temperature. […]

[2] = test system: late-stage gametocytes (NF54-PfS16-GFP-Luc); assay: Luciferase reporter assay, late-stage gametocytes; format: cell-based, Plasmodium falciparum
Experimental: as §1, §2, §3, §4, §5, §6

[3] = Single-point microsomal metabolic stability, human; format: in vitro ADME; settings: human liver microsomes, 1 µM
Experimental: 1.8. Microsomal metabolic stability studies […]
rat IGS, Xenotech), and mouse (male mouse CD1, Xenotech) liver microsomes (0.4 mg/ml) for 30 min at 37 °C. Reactions were quenched by adding ice-cold acetonitrile containing […]
disappearance of the parent compound. Half-life, clearance, and hepatic excretion ratios were determined using standard equations.6,7 Propranolol. […]

[4] = In vivo pharmacokinetics in female Balb/C mice; set-up: species or system mouse
Experimental: In this regard, three replicates of female Balb/C mice were dosed at either 3 mg/kg (intravenously, i.v.) or 10 mg/kg (orally, p.o.). Blood was sampled at specific time intervals over 48 h. The corresponding PK parameters were calculated using noncompartmental analysis (Table 2). […]
1.9. Determination of pharmacokinetic parameters […]
parameters. Compounds were administered either intravenously as a bolus solution […]
Mice were allowed to eat and access water freely.
To determine the PK parameters, blood samples were collected from the tail vein of the mice into heparinized microcentrifugation tubes at distinct sampling times (0.17, 0.5, 1, 3, 5, 7, 9, 24, and 48 hours for intravenous dosing; 0.5, 1, 3, 5, 7, 9, 24 and 48 hours for oral dosing). All samples were stored at -80 °C until extraction.
For the bioanalysis, frozen whole blood was thawed at room temperature and 1-0 µL of each sample was extracted by protein precipitation (using 100 µL of acetonitrile containing 10 ng/ml of the internal standard, MMV394902). The sample was centrifuged. Supernatants of each sample were injected into the LC-MS/MS column for analysis. The analytical limit of quantitation (LOQ) was 2 ng/mL. The pharmacokinetic parameters were calculated using noncompartmental analysis using PK Solutions 2.0 (Summit Research Services, Montrose, CO, USA) and a curve stripping-based method. […]
1.11. Plasma protein binding (PPB)
To determine the percentage of test compound bound to plasma, ultracentrifugation was used.
The test compound (5 µM of a 10 mM DMSO stock) was used to spike pooled human plasma.
An aliquot of the spiked solution was removed immediately and quenched with carbamazepine, […]

Cyclic voltammetry = format: physicochemical
Description: It is known that Fe^2+/Fe^3+ redox chemistry has an important role in the bioactivity of ferrocene derivatives.[33] The production of reactive oxygen species (ROS) is one of the modes of action of ferroquine and other ferrocene derivatives[34] and is linked to the correlation between their bioactivity and electrochemical behavior. We determined whether a similar correlation could be made for the mixed-ligand platinum(II) complexes reported herein given that metal centers have the potential to be oxidized and reduced. The electrochemistry of the complexes was studied using cyclic voltammetry (CV), which uses a triangular potential waveform. The CV experiments were performed in either dry MeOH or DMF containing tetrabutylammonium chloride (TBACl) as the supporting electrolyte. The working electrode was glassy carbon with a platinum wire as the counter electrode and Ag/AgCl as the reference. The anodic (Epa) and cathodic (Epc) peak potentials at 0.1 V/s and half-wave potentials (E1/2) were measured (Table 3). All of the tested complexes undergo reversible one-electron Pt^2+/Pt^+ reductions (Figures S38–S46). Complexes C2, C4, and C8 undergo a second nonreversible reduction (Epc2), which is most likely ligand-based and linked to reductions of the substituent on the bpy. Looking at SAR2, the more electron-withdrawing the substituent, the […] the E1/2 (V vs Fe/Fe^+) value was. This trend was expected, as a more electron-withdrawing substituent reduces the electron density around the metal center, making it easier for the metal to be reduced from Pt^2+ to Pt^+. […] This is also the case for other bpy-containing platinum(II) complexes that only undergo reductions.[35],[36] […]
For the cyclic voltammetry experiments a solution of the test compound (1 x 10-3) in DMSO (3 mL) is added to the electrolyte solution (0.1 M tetrabutylammonium chloride (TBACl) in DMSO). The electrochemical measurements were obtained using a Basi Epsilon Eclipse Electrochemical Analyzer Potentiostat and the CV graphs were generated using Excel. The working electrode was glassy carbon (GC) with platinum wire as the counter electrode (CE) and Ag/AgCl as the reference. […]

Nc1cc[n+]2c(c1)-c1cc(N)cc[n+]1[Pt-2]21[O+]=C(c2ccccc2)N=C(N(CCO)CCO)[S]1.[Cl-] [C6]
IC50 (PfNF54 ABS parasites): 36.3 ± 0.6 nM
EG (% inhibition) 1 µM ([1]; 1 µM): 13.7 % inhibition
EG (% inhibition) 5 µM ([1]; 5 µM): 20.1 % inhibition
LG (% inhibition) 1 µM ([2]; 1 µM, single biological repeat): 42.3 % inhibition
LG (% inhibition) 5 µM ([2]; 5 µM, single biological repeat): 32.4 % inhibition
IC50 ([2]; late (IV/V) gametocytes, luciferase, 48 h, read-out: LG IC50): > 20000 nM
Microsomal metabolic stability (% remaining after 30 min) Human [3]: 43 % remaining
CLs i.v. ([4]; 3 mg/kg i.v.): 46.4 mL/min/kg
T1/2 i.v. ([4]; 3 mg/kg i.v.): 10.8 h
T1/2 p.o. ([4]; 10 mg/kg p.o.): 12.0 h
Bioavailability ([4]; 10 mg/kg p.o. vs 3 mg/kg i.v.): 3.8%
Vss i.v. ([4]; female Balb/C mice, 3 mg/kg i.v.): 45.6 L/kg
Vssu ([4]; i.v., unbound fraction): 4560 L/kg
CLu ([4]; p.o., unbound fraction): > 1000 mL min^–1 kg^–1
CLu i.v. ([4]; unbound fraction, Clu = Cls/Fu, i.v.): >1000 mL/min/kg
Vssu i.v. ([4]; unbound fraction, Vssu = Vss/Fu, 3 mg/kg i.v.): 4560 L/kg
Epa1 (Cyclic voltammetry; anodic peak potential, 0.1 V/s): –1.138 V
Epc1 (Cyclic voltammetry; cathodic peak potential, 0.1 V/s): –1.068 V
E1/2 (Cyclic voltammetry; half-wave potential): –1.103 V vs Ag/Ag^+
E1/2 (Cyclic voltammetry; half-wave potential corrected to ferrocene): –1.643 V vs Fe/Fe^+
